3 molecules from publication PMC9986241 (Signal Transduction and Targeted Therapy, 2023) can be followed below.

One assay deals with T1, MEK2(h) (Homo sapiens, UniProt P36507).
T1 construct: purchased Eurofins KinaseProfiler
Description: KinaseProfiler enzyme profiling. The assay is classed as biochemical. In a few lines: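 Panel profiling of erianin at 100 nM over 70 kinases in vitro, performed with 2 repetitions.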

The next assay deals with T2, TYK2(h) (Homo sapiens, UniProt P29597).
T2 construct: purchased Eurofins KinaseProfiler
Kind of assay: KinaseProfiler enzyme profiling. The assay is classed as biochemical. To be noted: 100 nM. Summed up: (§1)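 Two replicate runs; 70 kinases; in vitro; erianin held at 100 nM throughout the screen.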

A further assay deals with A375 (BRAF V600E). Kind of assay: Cell proliferation MTT assay. It counts as cell-based. The conditions noted are these: Homo sapiens, A-375, 72 h. Here is the method: (§2) The synergism and antagonism (CI value) were determined and analyzed using CompuSyn 1.0.
(§3) For cytotoxicity test, normal NHDF (5000 cells/well) and NHEM cell line (3000 cells/well) were planted into 96-well plates. For cell proliferation assay, A375 (1500 cells/well), SK-MEL-28 (3000 cells/well), SK-MEL-2 (4000 cells/well), and HCT116 (1500 cells/well) were planted into 96-well plates, determined concentration of drug was added after culture for 24 h. The viability of the cells was detected within 72 h using MTT solution (5 mg/mL). The absorbance at 570/490 nm was quantified by the use of the microplate reader.
For orientation: Tetrazolium assays rely on reduction of a dye to a coloured formazan, in cell work by metabolically active cells.

A further assay deals with HCT116 (KRAS mut). Kind of assay: Cell proliferation MTT assay. The assay is classed as cell-based. The conditions noted are these: Homo sapiens, HCT-116, 72 h. On the procedure:
as §2, §3

A further assay relates to SK-MEL-2 (NRAS mut). Kind of assay: Cell proliferation MTT assay. The assay is classed as cell-based. The conditions noted are these: Homo sapiens, SK-MEL-2, 72 h. On the procedure:
as §2, §3

A further assay relates to SK-MEL-28 (BRAF V600E). Kind of assay: Cell proliferation MTT assay. The assay is classed as cell-based. To be noted: Homo sapiens, SK-MEL-28, 72 h. Here is the method: as §2, §3
In the next assay the target is T3, Bmx(h) (Homo sapiens, UniProt P51813).
T3 construct: purchased Eurofins KinaseProfiler
Description: KinaseProfiler enzyme profiling. It counts as biochemical. In a few lines:
as §1

A further assay deals with T4, EGFR(L858R)(h) (Homo sapiens, UniProt P00533, L858R).
T4 construct: purchased Eurofins KinaseProfiler
Description: KinaseProfiler enzyme profiling. It counts as biochemical. Summed up:
as §1

The target in another assay is T5, EphA2(h) (Homo sapiens, UniProt P29317).
T5 construct: purchased Eurofins KinaseProfiler
Kind of assay: KinaseProfiler enzyme profiling. The assay is classed as biochemical. In a few lines: as §1

The next assay addresses T6, LKB1(h) (Homo sapiens, UniProt Q15831).
T6 construct: purchased Eurofins KinaseProfiler
Kind of assay: KinaseProfiler enzyme profiling. The assay is classed as biochemical. In a few lines: as §1

The target in the next assay is T7, MKK7β(h) (Homo sapiens, UniProt O14733).
T7 construct: purchased Eurofins KinaseProfiler
Kind of assay: KinaseProfiler enzyme profiling. The assay is classed as biochemical. Summed up:
as §1

In the next assay the target is T8, MST1(h) (Homo sapiens, UniProt Q13043).
T8 construct: purchased Eurofins KinaseProfiler
Description: KinaseProfiler enzyme profiling. The assay is classed as biochemical. Summed up: as §1

The target of another assay is T9, NEK3(h) (Homo sapiens, UniProt P51956).
T9 construct: purchased Eurofins KinaseProfiler
Kind of assay: KinaseProfiler enzyme profiling. The assay is classed as biochemical. In a few lines: as §1

T1 sequence (P36507 whole entry): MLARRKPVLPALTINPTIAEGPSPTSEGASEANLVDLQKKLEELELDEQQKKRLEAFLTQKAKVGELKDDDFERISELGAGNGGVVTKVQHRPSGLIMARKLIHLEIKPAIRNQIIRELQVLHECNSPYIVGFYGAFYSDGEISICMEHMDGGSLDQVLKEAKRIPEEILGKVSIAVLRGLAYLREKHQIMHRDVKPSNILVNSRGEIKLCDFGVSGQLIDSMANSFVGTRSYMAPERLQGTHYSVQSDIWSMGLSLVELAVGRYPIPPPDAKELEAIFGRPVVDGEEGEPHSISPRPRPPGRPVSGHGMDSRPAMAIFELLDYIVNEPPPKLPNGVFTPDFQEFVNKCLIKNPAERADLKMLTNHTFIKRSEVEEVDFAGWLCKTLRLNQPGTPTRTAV
T9 sequence (P51956 whole entry): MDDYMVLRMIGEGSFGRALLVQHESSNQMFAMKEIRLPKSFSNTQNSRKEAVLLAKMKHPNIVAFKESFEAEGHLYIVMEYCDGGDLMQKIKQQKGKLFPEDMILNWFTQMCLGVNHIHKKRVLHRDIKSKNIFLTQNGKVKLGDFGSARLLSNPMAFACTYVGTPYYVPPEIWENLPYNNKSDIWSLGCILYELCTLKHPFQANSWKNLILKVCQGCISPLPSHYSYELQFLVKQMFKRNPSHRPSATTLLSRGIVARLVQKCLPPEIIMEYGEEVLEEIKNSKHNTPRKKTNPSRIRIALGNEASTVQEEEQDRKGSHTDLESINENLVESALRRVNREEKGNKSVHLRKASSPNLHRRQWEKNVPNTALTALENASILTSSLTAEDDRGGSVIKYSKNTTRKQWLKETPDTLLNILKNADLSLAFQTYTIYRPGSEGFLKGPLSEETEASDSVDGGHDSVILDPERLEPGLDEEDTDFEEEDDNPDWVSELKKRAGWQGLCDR
T6 sequence (Q15831 whole entry): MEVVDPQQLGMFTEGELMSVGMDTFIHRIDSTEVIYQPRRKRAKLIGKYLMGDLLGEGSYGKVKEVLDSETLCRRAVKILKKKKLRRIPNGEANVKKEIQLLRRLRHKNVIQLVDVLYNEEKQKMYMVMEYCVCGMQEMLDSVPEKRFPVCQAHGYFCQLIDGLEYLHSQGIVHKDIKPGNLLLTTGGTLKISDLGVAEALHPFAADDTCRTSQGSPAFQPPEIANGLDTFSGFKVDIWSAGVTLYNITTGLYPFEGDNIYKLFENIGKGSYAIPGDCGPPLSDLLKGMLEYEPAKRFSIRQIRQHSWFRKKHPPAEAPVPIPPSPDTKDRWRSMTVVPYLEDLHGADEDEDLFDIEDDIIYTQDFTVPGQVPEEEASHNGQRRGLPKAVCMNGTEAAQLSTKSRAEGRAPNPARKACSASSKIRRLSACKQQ
T6 sequence (Q7RTN6 whole entry partner): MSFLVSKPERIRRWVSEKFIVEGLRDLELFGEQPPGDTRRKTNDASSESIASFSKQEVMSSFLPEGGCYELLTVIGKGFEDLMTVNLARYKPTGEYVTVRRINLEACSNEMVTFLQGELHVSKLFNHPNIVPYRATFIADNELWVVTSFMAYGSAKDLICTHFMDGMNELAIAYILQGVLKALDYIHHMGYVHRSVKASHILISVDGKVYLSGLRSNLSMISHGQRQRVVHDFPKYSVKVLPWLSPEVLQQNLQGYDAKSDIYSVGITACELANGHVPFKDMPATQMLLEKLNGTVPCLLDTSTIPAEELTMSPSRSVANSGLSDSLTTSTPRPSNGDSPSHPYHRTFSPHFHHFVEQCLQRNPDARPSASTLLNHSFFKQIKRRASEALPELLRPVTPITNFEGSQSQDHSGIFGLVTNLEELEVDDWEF
T6 sequence (Q9Y376 whole entry partner): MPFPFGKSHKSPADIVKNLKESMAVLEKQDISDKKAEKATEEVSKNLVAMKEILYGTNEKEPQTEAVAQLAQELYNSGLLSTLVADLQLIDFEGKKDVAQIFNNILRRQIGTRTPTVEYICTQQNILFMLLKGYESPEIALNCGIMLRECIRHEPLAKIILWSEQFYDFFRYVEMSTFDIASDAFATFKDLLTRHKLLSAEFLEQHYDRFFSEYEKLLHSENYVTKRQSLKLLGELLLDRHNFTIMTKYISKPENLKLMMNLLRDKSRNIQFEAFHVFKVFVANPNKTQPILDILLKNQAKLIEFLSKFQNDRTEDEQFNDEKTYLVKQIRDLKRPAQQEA
T5 sequence (P29317 24-976): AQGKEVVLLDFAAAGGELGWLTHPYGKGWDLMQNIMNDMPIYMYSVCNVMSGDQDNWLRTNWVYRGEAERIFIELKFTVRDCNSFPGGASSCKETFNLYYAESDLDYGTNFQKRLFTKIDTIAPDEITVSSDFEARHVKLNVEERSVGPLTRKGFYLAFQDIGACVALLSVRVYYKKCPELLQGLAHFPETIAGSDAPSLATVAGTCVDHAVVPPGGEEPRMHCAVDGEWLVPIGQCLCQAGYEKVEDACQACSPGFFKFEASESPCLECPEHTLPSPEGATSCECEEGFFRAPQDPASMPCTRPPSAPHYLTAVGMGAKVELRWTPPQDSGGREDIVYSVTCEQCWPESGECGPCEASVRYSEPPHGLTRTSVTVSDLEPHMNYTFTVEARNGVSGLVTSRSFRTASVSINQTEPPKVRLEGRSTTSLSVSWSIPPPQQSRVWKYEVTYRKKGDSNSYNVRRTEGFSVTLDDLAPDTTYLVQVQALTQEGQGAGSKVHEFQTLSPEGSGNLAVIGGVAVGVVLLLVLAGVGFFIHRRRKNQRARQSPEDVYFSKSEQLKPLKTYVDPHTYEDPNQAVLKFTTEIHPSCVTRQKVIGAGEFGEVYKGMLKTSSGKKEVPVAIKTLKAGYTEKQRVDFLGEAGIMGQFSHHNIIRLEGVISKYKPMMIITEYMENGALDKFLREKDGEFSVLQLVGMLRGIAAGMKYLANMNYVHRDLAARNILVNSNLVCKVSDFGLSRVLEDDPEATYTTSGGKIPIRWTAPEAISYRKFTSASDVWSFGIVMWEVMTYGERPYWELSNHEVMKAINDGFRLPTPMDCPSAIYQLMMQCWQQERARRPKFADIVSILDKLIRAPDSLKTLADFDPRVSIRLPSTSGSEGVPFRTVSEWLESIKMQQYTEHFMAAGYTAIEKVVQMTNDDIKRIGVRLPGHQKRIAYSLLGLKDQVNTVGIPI
T7 sequence (O14733 whole entry): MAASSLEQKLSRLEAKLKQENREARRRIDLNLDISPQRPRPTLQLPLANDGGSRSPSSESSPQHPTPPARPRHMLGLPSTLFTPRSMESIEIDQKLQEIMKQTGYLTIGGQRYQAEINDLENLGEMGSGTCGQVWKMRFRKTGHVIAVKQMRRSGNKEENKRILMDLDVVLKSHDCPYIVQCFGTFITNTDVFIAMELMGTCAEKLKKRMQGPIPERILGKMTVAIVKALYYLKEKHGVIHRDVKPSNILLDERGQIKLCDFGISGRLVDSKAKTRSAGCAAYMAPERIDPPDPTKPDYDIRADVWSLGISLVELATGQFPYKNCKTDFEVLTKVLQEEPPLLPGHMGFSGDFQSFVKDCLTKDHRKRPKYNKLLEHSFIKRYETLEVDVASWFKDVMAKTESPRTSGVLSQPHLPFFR
T8 sequence (Q13043 whole entry): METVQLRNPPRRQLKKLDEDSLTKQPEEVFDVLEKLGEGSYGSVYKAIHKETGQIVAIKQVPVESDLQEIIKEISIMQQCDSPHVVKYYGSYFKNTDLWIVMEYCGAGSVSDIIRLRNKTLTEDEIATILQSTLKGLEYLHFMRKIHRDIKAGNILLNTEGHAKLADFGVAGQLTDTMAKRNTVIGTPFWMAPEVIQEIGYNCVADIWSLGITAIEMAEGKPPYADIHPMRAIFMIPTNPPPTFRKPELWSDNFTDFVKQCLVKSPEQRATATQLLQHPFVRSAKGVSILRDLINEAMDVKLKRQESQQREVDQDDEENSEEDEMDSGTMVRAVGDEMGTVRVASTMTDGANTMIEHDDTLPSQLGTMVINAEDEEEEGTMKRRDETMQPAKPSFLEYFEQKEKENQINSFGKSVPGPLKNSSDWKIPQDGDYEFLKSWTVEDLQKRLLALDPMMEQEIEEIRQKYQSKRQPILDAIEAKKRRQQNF
T3 sequence (P51813 whole entry): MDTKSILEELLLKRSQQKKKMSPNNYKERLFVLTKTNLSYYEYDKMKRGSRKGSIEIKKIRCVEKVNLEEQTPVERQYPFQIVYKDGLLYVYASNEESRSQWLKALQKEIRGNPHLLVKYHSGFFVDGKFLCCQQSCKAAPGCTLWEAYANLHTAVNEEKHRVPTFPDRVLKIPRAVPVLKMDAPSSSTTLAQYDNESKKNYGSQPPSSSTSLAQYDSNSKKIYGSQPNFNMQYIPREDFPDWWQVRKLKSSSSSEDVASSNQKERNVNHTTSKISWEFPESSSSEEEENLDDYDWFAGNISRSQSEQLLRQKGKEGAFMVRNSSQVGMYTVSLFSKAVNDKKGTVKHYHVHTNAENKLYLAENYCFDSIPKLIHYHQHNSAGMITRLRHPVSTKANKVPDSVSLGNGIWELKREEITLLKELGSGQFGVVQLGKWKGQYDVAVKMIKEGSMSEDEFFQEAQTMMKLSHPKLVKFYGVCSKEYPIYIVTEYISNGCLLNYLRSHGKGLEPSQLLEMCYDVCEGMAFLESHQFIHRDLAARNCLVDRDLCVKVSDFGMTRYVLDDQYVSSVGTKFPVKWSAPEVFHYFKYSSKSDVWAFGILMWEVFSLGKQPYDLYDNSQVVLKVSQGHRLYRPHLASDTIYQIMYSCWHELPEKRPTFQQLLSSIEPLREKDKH

As to `COc1ccc(CCc2cc(OC)c(OC)c(OC)c2)cc1O` [Erianin], the figures for the activity at 0.1 µM at MEK2(h) and at TYK2(h) were 83% and 100%, respectively. The IC50 (as a rule, the concentration at which inhibition is half-maximal) in the assay with A375 (BRAF V600E) was 0.012 ± 0.0009 µM; in the assay with HCT116 (KRAS mut) it was 0.0206 ± 0.0022 µM; with SK-MEL-2 (NRAS mut) it was 0.0597 ± 0.0072 µM; with SK-MEL-28 (BRAF V600E), 0.0506 ± 0.0017 µM.

On to `COc1cc2oc(-c3ccc(O)c(O)c3)cc(=O)c2c(O)c1OC` [Cirsiliol], for which the activity at 10 µM on Bmx(h) came to 89%; on EGFR(L858R)(h) it was 107%; on EphA2(h), 97%; on LKB1(h) it was 96%; on MKK7β(h), 95%.

On to `C=C1C(=O)[C@]23[C@H](O)[C@H]1CC[C@H]2[C@@]12CO[C@]3(O)[C@@H](O)[C@@H]1C(C)(C)CC[C@@H]2O` [Oridonin], for which the values for the activity at 10 µM at MST1(h) and at NEK3(h) were 65% and 64%, respectively.
